Experimental data from patent publication US6897224B2, “Quinoline and isoquinoline derivatives, a process for their production and their use as inflammation inhibitors” (Schering AG, priority 2002, dated 2005).

Columns and labels:
[1] = target: T1, progesterone receptor (PR) (Homo sapiens, UniProt P06401); assay: Binding to the progesterone receptor, recombinantly produced receptor
T1 construct: made in house
T1 sequence (P06401 1-933): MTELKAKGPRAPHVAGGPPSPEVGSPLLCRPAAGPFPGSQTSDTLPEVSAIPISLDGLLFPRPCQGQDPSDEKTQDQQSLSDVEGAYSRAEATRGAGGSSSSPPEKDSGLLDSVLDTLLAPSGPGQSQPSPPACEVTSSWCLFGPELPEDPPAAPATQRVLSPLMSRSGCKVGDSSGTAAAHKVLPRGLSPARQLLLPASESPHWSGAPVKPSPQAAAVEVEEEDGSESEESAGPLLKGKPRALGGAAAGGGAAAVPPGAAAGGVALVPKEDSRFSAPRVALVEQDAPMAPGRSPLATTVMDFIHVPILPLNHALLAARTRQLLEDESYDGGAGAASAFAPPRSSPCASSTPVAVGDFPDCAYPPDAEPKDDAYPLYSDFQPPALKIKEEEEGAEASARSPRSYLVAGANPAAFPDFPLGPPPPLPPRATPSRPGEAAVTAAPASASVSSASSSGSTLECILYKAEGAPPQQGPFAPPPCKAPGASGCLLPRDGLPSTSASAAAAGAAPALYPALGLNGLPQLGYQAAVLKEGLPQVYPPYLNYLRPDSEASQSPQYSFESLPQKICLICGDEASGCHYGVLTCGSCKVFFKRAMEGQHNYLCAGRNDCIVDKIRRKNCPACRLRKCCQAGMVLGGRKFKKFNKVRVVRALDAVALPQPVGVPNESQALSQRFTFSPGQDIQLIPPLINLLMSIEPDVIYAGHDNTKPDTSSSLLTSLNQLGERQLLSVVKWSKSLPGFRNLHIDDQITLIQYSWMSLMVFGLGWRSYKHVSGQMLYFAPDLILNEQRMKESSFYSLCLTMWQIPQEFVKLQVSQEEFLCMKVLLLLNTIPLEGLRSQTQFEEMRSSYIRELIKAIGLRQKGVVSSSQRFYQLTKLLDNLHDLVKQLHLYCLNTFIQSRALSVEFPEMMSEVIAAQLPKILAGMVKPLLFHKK

androgen receptor (AR) = target: T2, androgen receptor (AR) (Homo sapiens, UniProt P10275); assay: Binding to the androgen receptor, recombinantly produced receptor
T2 construct: made in house
T2 sequence (P10275 1-920): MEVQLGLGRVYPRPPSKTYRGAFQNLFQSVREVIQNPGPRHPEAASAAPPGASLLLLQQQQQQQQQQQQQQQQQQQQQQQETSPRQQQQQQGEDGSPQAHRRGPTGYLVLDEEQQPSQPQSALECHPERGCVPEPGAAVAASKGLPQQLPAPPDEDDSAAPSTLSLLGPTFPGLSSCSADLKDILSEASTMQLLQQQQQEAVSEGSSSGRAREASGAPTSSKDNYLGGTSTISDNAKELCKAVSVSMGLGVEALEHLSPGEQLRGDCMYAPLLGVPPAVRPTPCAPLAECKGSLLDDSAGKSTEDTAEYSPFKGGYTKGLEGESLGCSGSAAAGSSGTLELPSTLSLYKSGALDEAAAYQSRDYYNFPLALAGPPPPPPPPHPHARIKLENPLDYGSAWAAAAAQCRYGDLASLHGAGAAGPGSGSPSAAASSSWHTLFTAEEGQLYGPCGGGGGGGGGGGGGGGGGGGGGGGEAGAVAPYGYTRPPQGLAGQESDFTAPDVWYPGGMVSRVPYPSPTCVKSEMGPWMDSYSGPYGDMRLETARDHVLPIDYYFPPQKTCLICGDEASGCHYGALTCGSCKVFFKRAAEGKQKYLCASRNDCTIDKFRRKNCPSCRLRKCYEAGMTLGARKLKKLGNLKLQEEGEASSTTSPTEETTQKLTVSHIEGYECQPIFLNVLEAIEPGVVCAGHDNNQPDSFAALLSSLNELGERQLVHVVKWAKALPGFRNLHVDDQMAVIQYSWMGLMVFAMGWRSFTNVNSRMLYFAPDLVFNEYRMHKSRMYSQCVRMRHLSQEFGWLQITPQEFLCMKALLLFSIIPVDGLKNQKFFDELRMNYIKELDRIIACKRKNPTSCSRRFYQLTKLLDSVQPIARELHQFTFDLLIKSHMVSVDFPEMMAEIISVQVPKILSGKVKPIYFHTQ

[2] = target: T3, mineral corticoid receptor (MR) (Homo sapiens, UniProt P08235); assay: Binding to the mineral corticoid receptor, recombinantly produced receptor
T3 construct: made in house
T3 sequence (P08235 1-984): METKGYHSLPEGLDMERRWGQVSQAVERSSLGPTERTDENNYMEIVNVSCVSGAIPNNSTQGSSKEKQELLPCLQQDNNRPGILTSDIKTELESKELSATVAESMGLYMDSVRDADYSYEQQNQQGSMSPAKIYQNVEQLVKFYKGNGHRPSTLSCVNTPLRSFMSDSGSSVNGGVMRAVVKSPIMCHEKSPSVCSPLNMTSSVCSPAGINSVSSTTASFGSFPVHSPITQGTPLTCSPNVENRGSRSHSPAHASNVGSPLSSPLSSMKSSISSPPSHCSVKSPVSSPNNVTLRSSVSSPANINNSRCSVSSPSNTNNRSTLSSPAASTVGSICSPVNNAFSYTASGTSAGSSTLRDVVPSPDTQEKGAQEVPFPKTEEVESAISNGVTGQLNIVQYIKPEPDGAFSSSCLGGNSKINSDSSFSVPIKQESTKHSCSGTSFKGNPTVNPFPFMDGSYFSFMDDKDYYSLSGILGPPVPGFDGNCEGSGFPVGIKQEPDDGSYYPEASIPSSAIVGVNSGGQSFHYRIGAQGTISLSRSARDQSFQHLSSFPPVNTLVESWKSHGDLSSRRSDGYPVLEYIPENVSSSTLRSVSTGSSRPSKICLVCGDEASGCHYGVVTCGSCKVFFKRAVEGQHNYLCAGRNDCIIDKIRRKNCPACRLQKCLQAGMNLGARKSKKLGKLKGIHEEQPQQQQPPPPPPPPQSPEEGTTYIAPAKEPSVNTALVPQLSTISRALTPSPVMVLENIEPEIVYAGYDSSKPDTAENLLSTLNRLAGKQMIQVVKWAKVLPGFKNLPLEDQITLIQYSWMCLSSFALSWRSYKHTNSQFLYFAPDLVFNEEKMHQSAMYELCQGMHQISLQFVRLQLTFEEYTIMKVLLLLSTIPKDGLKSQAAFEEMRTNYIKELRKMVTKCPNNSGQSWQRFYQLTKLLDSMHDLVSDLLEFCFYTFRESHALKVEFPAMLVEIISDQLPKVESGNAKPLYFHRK

[3] = target: glucocorticoid receptor (GR) (Homo sapiens, UniProt P04150); assay: biochemical
Description: The binding of the substances to the glucocorticoid receptor (GR) and other steroid hormone receptors (mineral corticoid receptor (MR), progesterone receptor (PR) and androgen receptor (AR)) is examined with the aid of recombinantly produced receptors. Cytosol preparations of Sf9 cells, which had been infected with recombinant baculoviruses that code for the GR, are used for the binding studies.

Sequence of glucocorticoid receptor (GR) (P04150 whole entry, species assumed): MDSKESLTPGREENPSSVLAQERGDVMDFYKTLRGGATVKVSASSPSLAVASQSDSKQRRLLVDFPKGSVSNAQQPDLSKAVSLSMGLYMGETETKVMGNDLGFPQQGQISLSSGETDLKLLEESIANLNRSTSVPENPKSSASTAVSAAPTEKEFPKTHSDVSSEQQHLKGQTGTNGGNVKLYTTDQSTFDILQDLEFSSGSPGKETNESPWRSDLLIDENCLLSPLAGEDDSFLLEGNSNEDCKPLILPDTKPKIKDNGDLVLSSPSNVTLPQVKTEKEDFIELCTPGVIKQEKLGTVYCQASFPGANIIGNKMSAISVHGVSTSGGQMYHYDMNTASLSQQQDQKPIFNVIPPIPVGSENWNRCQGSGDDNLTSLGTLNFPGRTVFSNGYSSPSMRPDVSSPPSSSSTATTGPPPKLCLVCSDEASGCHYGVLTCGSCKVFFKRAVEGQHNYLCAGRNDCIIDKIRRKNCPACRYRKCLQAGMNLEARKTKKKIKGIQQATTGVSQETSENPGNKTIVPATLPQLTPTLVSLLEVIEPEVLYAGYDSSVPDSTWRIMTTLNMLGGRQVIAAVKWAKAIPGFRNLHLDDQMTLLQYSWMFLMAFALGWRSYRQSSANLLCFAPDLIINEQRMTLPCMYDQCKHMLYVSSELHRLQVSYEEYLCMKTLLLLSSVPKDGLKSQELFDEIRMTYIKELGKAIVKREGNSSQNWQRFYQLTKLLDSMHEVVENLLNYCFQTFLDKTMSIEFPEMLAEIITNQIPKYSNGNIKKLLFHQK

- IC50 [1]: > 1000 nM
- IC50 (androgen receptor (AR)): > 1000 nM
- IC50 [2]: > 1000 nM
- IC50 [3]: 0.6 to 1.3 nM
SMILES: CC(C)(CC(O)(CNc1cccc2ncccc12)C(F)(F)F)c1cc(F)ccc1O (stereo not shown) [Example 4]
